A word on the IC50: it is the concentration at which inhibition is half-maximal. The low end stands for higher potency, the high end for lower potency.

Each structure is given as a SMILES string.

The subject of the experiment is Plasmodium falciparum. Put plainly: Inhibitory activity against Plasmodium falciparum Dd2 in erythrocytes by semiautomated micro dilution. The experiment is classed as functional, organism-based.
Regarding `O=C(/C=C/c1ccc(-c2ccc([N+](=O)[O-])cc2)o1)Nc1ccc(NC(=O)Cc2ccccc2)c(C(=O)c2ccccc2)c1`, half-maximal inhibition (IC50) was put at 270 nM.
The molecule `O=C(/C=C/c1ccc(-c2ccc([N+](=O)[O-])cc2)o1)Nc1ccc(NC(=O)c2ccc3ccccc3c2)c(C(=O)c2ccccc2)c1` gave an IC50 of 2500 nM.
In turn, `O=C(/C=C/c1ccc(-c2ccc([N+](=O)[O-])cc2)o1)Nc1ccc(NC(=O)Cc2ccc(C(F)(F)F)cc2)c(C(=O)c2ccccc2)c1` showed a half-inhibitory concentration (IC50) of 47 nM.
Then `O=C(/C=C/c1ccc(-c2ccc([N+](=O)[O-])cc2)o1)Nc1ccc(NC(=O)Cc2ccc3ccccc3c2)c(C(=O)c2ccccc2)c1`, with 210 nM; and `O=C(/C=C/c1ccc(-c2ccc([N+](=O)[O-])cc2)o1)Nc1ccc(NC(=O)c2ccc(Cl)cc2)c(C(=O)c2ccccc2)c1`, with 2500 nM.
With `O=C(/C=C/c1ccc(-c2ccc([N+](=O)[O-])cc2)o1)Nc1ccc(NC(=O)Cc2ccc([N+](=O)[O-])cc2)c(C(=O)c2ccccc2)c1`, inhibition was half-maximal at 1400 nM (IC50).
Under `O=C(/C=C/c1ccc(-c2ccc([N+](=O)[O-])cc2)o1)Nc1ccc(NC(=O)Cc2ccc(Cl)cc2)c(C(=O)c2ccccc2)c1` stands 64 nM; under `O=C(/C=C/c1ccc(-c2ccc([N+](=O)[O-])cc2)o1)Nc1ccc(NC(=O)c2cccc3ccccc23)c(C(=O)c2ccccc2)c1`, 770 nM.
Then `O=C(/C=C/c1ccc(-c2ccc([N+](=O)[O-])cc2)o1)Nc1ccc(NC(=O)Cc2cccc3ccccc23)c(C(=O)c2ccccc2)c1`, with 250 nM.
Under `O=C(/C=C/c1ccc(-c2ccc([N+](=O)[O-])cc2)o1)Nc1ccc(NC(=O)Cc2ccc(Br)cc2)c(C(=O)c2ccccc2)c1` stands 70 nM.
With `CC(C(=O)Nc1ccc(NC(=O)/C=C/c2ccc(-c3ccc([N+](=O)[O-])cc3)o2)cc1C(=O)c1ccccc1)c1ccccc1` (stereo not given), the 50% inhibitory concentration (IC50) amounted to 500 nM.
Then `COc1ccc(CC(=O)Nc2ccc(NC(=O)/C=C/c3ccc(-c4ccc([N+](=O)[O-])cc4)o3)cc2C(=O)c2ccccc2)cc1`, with 320 nM; and `O=C(/C=C/c1ccc(-c2ccc([N+](=O)[O-])cc2)o1)Nc1ccc(NC(=O)Cc2ccccc2Br)c(C(=O)c2ccccc2)c1`, with 1000 nM.
Then `O=C(/C=C/c1ccc(-c2ccc([N+](=O)[O-])cc2)o1)Nc1ccc(NC(=O)Cc2ccc(F)cc2)c(C(=O)c2ccccc2)c1`, with 230 nM.
Then `O=C(/C=C/c1ccc(-c2ccc([N+](=O)[O-])cc2)o1)Nc1ccc(NC(=O)Cc2ccccc2C(F)(F)F)c(C(=O)c2ccccc2)c1`, with 1000 nM; and `O=C(/C=C/c1ccc(-c2ccc([N+](=O)[O-])cc2)o1)Nc1ccc(NC(=O)C(c2ccccc2)c2ccccc2)c(C(=O)c2ccccc2)c1`, with 5500 nM; and `O=C(/C=C/c1ccc(-c2ccc([N+](=O)[O-])cc2)o1)Nc1ccc(NC(=O)Cc2ccc(-c3ccccc3)cc2)c(C(=O)c2ccccc2)c1`, with 1000 nM.
`Cc1cccc(CC(=O)Nc2ccc(NC(=O)/C=C/c3ccc(-c4ccc([N+](=O)[O-])cc4)o3)cc2C(=O)c2ccccc2)c1` registered an IC50 of 150 nM.
In turn, `Cc1ccccc1CC(=O)Nc1ccc(NC(=O)/C=C/c2ccc(-c3ccc([N+](=O)[O-])cc3)o2)cc1C(=O)c1ccccc1` returned an IC50 of 650 nM.
Under `O=C(/C=C/c1ccc(-c2ccc([N+](=O)[O-])cc2)o1)Nc1ccc(NC(=O)c2ccccc2)c(C(=O)c2ccccc2)c1` stands 3000 nM.

The record behind these values is ChEMBL document CHEMBL1136509, “Structure-activity relationships of novel anti-malarial agents: part 5. N-(4-acylamino-3-benzoylphenyl)-[5-(4-nitrophenyl)-2-furyl]acrylic acid amides” (Bioorg Med Chem Lett, 2003).
